Assay results from PubChem BioAssay (NCI).
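Compound exposure: 48 hours, 5 concentrations, 96-well plates. GI50 marks 50% less growth. TGI: concentration producing complete growth inhibition.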

Experiments:
Assay in all cases: NCI tumour cell line growth inhibition, 48 h
786-0 renal = test system: 786-0 renal
A498 renal = test system: A498 renal
CAKI-1 renal = test system: CAKI-1 renal
DU-145 prostate = test system: DU-145 prostate
HCT-15 colon = test system: HCT-15 colon
IGROV1 ovarian = test system: IGROV1 ovarian
NCI-H460 lung = test system: NCI-H460 lung
OVCAR-3 ovarian = test system: OVCAR-3 ovarian
PC-3 prostate = test system: PC-3 prostate
SNB-19 CNS = test system: SNB-19 CNS

Cc1ccc2oc(=O)cc(C3c4ccc([nH]4)C(c4cc(=O)oc5ccc(C)cc45)c4ccc([nH]4)C(c4cc(=O)oc5ccc(C)cc45)c4ccc([nH]4)C(c4cc(=O)oc5ccc(C)cc45)c4ccc3[nH]4)c2c1 (stereo not given)
GI50 (786-0 renal): 0.0288 µM | TGI (786-0 renal): 0.0937 µM | GI50 (A498 renal): 0.0275 µM | TGI (A498 renal): 0.248 µM | GI50 (CAKI-1 renal): 0.0806 µM | TGI (CAKI-1 renal): 1.79 µM | GI50 (DU-145 prostate): 0.0391 µM | TGI (DU-145 prostate): 1.8 µM | GI50 (HCT-15 colon): 0.0317 µM | TGI (HCT-15 colon): 1.21 µM | GI50 (IGROV1 ovarian): 0.0492 µM | TGI (IGROV1 ovarian): 1.73 µM | GI50 (NCI-H460 lung): 0.0375 µM | TGI (NCI-H460 lung): 0.656 µM | GI50 (OVCAR-3 ovarian): 0.0225 µM | TGI (OVCAR-3 ovarian): 0.0533 µM | GI50 (PC-3 prostate): 0.0366 µM | TGI (PC-3 prostate): 1.94 µM | GI50 (SNB-19 CNS): 0.0394 µM | TGI (SNB-19 CNS): 3.45 µM

c1cc(C2N3CCCN2CC3)ccn1 (stereo not given)
TGI (786-0 renal): > 100 µM | TGI (A498 renal): > 100 µM | TGI (CAKI-1 renal): > 100 µM | TGI (DU-145 prostate): > 100 µM | TGI (HCT-15 colon): > 100 µM | TGI (IGROV1 ovarian): > 100 µM | TGI (NCI-H460 lung): > 100 µM | TGI (OVCAR-3 ovarian): > 100 µM | TGI (PC-3 prostate): > 100 µM | TGI (SNB-19 CNS): > 100 µM

CN(C)CCN1C(=O)c2cccc3c(-c4ccc5ncn(C6CCCCC6)c5c4)ccc(c23)C1=O
GI50 (786-0 renal): 1.59 µM | TGI (786-0 renal): 12.2 µM | GI50 (A498 renal): 2.15 µM | TGI (A498 renal): 5.1 µM | GI50 (CAKI-1 renal): 1.27 µM | TGI (CAKI-1 renal): 6.67 µM | GI50 (DU-145 prostate): 3.14 µM | TGI (DU-145 prostate): 13.5 µM | GI50 (HCT-15 colon): 1.34 µM | TGI (HCT-15 colon): 10.6 µM | GI50 (IGROV1 ovarian): 1.12 µM | TGI (IGROV1 ovarian): 5.86 µM | GI50 (NCI-H460 lung): 1.01 µM | TGI (NCI-H460 lung): 7.41 µM | GI50 (OVCAR-3 ovarian): 2.28 µM | TGI (OVCAR-3 ovarian): 8.78 µM | GI50 (PC-3 prostate): 1.63 µM | TGI (PC-3 prostate): 5.75 µM | GI50 (SNB-19 CNS): 1.88 µM | TGI (SNB-19 CNS): 20.1 µM

OCCCCC#Cc1ccccc1C#Cc1cccs1
GI50 (786-0 renal): 14.3 µM | TGI (786-0 renal): 27.9 µM | GI50 (A498 renal): 9.67 µM | TGI (A498 renal): 23.3 µM | GI50 (CAKI-1 renal): 14.6 µM | TGI (CAKI-1 renal): 28.3 µM | GI50 (DU-145 prostate): 13 µM | TGI (DU-145 prostate): 25.7 µM | GI50 (HCT-15 colon): 13.1 µM | TGI (HCT-15 colon): 26.5 µM | GI50 (IGROV1 ovarian): 16.5 µM | TGI (IGROV1 ovarian): 30.5 µM | GI50 (NCI-H460 lung): 15.1 µM | TGI (NCI-H460 lung): 29.8 µM | GI50 (OVCAR-3 ovarian): 15 µM | TGI (OVCAR-3 ovarian): 28.9 µM | GI50 (PC-3 prostate): 16.2 µM | TGI (PC-3 prostate): 30.8 µM | GI50 (SNB-19 CNS): 16.1 µM | TGI (SNB-19 CNS): 31.1 µM

C=C(C)C(=O)N1c2ccc(OC)cc2CC1C(=O)OCC (stereo not given)
TGI (786-0 renal): > 100 µM | TGI (A498 renal): > 100 µM | TGI (CAKI-1 renal): > 100 µM | TGI (DU-145 prostate): > 100 µM | TGI (HCT-15 colon): > 100 µM | TGI (IGROV1 ovarian): > 100 µM | TGI (NCI-H460 lung): > 100 µM | TGI (OVCAR-3 ovarian): > 100 µM | TGI (PC-3 prostate): > 100 µM | TGI (SNB-19 CNS): > 100 µM

CC(C)(C)n1cc(-c2ccnc(NCCCNS(=O)(=O)c3ccc(Cl)cc3)c2)c(-c2cccc(O)c2)n1
GI50 (786-0 renal): 2.03 µM | TGI (786-0 renal): 4.54 µM | GI50 (A498 renal): 1.51 µM | TGI (A498 renal): 3.72 µM | GI50 (CAKI-1 renal): 2.06 µM | TGI (CAKI-1 renal): 5.35 µM | GI50 (DU-145 prostate): 2.75 µM | TGI (DU-145 prostate): 7.63 µM | GI50 (HCT-15 colon): 1.52 µM | TGI (HCT-15 colon): 3.35 µM | GI50 (IGROV1 ovarian): 1.88 µM | TGI (IGROV1 ovarian): 4.39 µM | GI50 (NCI-H460 lung): 1.94 µM | TGI (NCI-H460 lung): 3.92 µM | GI50 (OVCAR-3 ovarian): 1.89 µM | TGI (OVCAR-3 ovarian): 3.72 µM | GI50 (PC-3 prostate): 1.36 µM | TGI (PC-3 prostate): 3.69 µM | GI50 (SNB-19 CNS): 2.18 µM | TGI (SNB-19 CNS): 4.96 µM

COc1cc2c(cc1-c1c(C)noc1C)ncc1[nH]c(=O)n([C@H](C)c3ccccn3)c12
GI50 (786-0 renal): 5.04 µM | TGI (786-0 renal): > 100 µM | GI50 (A498 renal): 1.55 µM | TGI (A498 renal): 13.1 µM | GI50 (CAKI-1 renal): 0.0939 µM | TGI (CAKI-1 renal): > 100 µM | GI50 (DU-145 prostate): 17.3 µM | TGI (DU-145 prostate): > 100 µM | GI50 (HCT-15 colon): 0.807 µM | TGI (HCT-15 colon): > 100 µM | GI50 (IGROV1 ovarian): 0.765 µM | TGI (IGROV1 ovarian): > 34.2 µM | GI50 (NCI-H460 lung): 11.2 µM | TGI (NCI-H460 lung): > 100 µM | GI50 (OVCAR-3 ovarian): 1.05 µM | TGI (OVCAR-3 ovarian): > 47.9 µM | GI50 (PC-3 prostate): 2.72 µM | TGI (PC-3 prostate): > 100 µM | GI50 (SNB-19 CNS): 1.16 µM | TGI (SNB-19 CNS): > 100 µM
